# Experimental data taken from patent US20160015786A1, “MOBILIZING AGENTS AND USES THEREFOR” (MATER MEDICAL RESEARCH INSTITUTE LIMITED, priority 2013, published 2016).
# Assays:
# Assay type in all cases: in vivo, C57BL/6 mice
# [1] = system: colony-forming cells (CFCs); assay: Mobilization of colony-forming cells (CFC/CFU) to blood and spleen, colony assays; settings: for number of CFUs mobilized from the bone marrow to the blood and spleen: Example 7: D 60 mg/kg, E and F 20 mg/kg, FIG. 13; for number of CFUs mobilized from the bone marrow to the blood and spleen / number of colony forming units mobilized to the spleen / total number (blood and spleen) of mobilized CFUs: + G-CSF vs vehicle + G-CSF; for number of colony forming units mobilized to the spleen / total number (blood and spleen) of mobilized CFUs: Example 8: H and J 60 mg/kg, K 100 mg/kg
# Experimental: Mobilization of colony-forming cells (CFCs) to the blood and spleen were measured (FIG. 1B).
# This was divided into two experiments in which G-CSF was administered for 2 days in one experiment and 4 days in the other (FIG. 2). […] Mobilization of CFCs, phenotypic Lin^−CD41^−Sca1^+Kit^+ HSPCs and Lin^−CD41^− Sca1^+Kit^+CD48^−CD150^+ HSCs were measured in blood and spleens.
# Additional HIF-α potentiating agents in the form of PHD inhibitors were tested for their ability to enhance mobilization induced by G-CSF.
# (§1) At the end of treatment, blood was harvested by cardiac puncture, mice were sacrificed by cervical dislocation and spleens harvested. Femurs were removed, cleaned and the bone marrow was flushed with 1 mL PBS+10% newborn calf serum (NCS).
# The number of phenotypic hematopoietic stem and progenitor cells remaining in the bone marrow following treatment was measured by flow cytometry using antibodies specific for lineage markers (CD3, CD5, CD45R/B220, F4/80, Gr1, CD41, Ter119), Sca-1, Kit, CD48 and CD150. Similarly, the number of phenotypic hematopoietic stem cells mobilized into the blood and spleen were measured. Colony assays were also performed on blood and spleen to determine the number of colony forming cells per mL of blood and per spleen. […] Levels of significance for differences were calculated using the Student's t-test.
# All procedures were approved by the animal experimentation ethics committee of the University of Queensland. […] Plerixafor (AMD3100 octohydrochloride, Tocris Bioscience, Bristol, UK) was injected intraperitoneally as a single 16 mg/kg dose corresponding to 10 mg/kg of AMD3100 base. Tissues were harvested 1 h after Plerixafor administration. […] Control mice were injected with an equivalent volume of saline. At specified time-points, mice were anesthetized with isoflurane before cardiac puncture to harvest blood. Mice were then euthanized by cervical dislocation and BM and bones harvested.
# Optimal concentrations of mouse IL-3, IL-6 and soluble kit ligand were added as conditioned media from stably transfected BHK cell lines. Colonies were counted after 7 days culture at 37° C. in a humidified incubator containing 5% CO2.
# white blood cells = assay: White blood cell number per mL of blood after mobilization treatment
# Experimental: (§2) Additional HIF-α potentiating agents in the form of PHD inhibitors were tested for their ability to enhance mobilization induced by G-CSF. Compound A, Compound B or Compound C, were tested in male, 7 weeks-old C57BL/6 mice. Mice were injected twice daily sub-cutaneously with rhuG-CSF at a dose of 125 μg/kg per injection for four days. Mice were gavaged with 20 mg/kg Compound A, Compound B, Compound C or vehicle control once daily for three days beginning on day 1 of the experiment.
# as §1
# [2] = system: hematopoietic stem and progenitor cells; assay: Phenotypic HSCs, HSPCs and myeloid progenitors in blood, spleen and bone marrow by flow cytometry; settings: for mobilization of myeloid progenitors (LKS−) to the blood / increase in mobilization of myeloid progenitors (LKS−) to the spleen / increase in number of HSPCs (LSK48+ and LSK) mobilized to the spleen / increase in number of phenotypic HSCs (LSK48−150+) mobilized to the spleen: Example 6: 20 mg/kg + G-CSF vs vehicle + G-CSF; for increase in mobilization of myeloid progenitors (LKS−) to the spleen / increase in number of HSPCs (LSK48+ and LSK) mobilized to the spleen / increase in number of phenotypic HSCs (LSK48−150+) mobilized to the spleen: FIGS. 8A-B; for total number of phenotypic HSPCs in the bone marrow: Example 6: 20 mg/kg once daily 3 days + rhuG-CSF 125 μg/kg twice daily 4 days vs vehicle + G-CSF, FIGS. 6A-B; for increase in total number of HSPCs (LSK48+ and LSK) mobilized from the bone marrow / increase in total number of myeloid progenitors (LKS−) mobilized from the bone marrow / increase in total number of phenotypic HSCs (LSK48−150+) mobilized from the bone marrow: Example 6: blood and spleen, 20 mg/kg + G-CSF vs vehicle + G-CSF, FIGS. 9A-B; for total number of HSCs and progenitors in the BM / total number of myeloid progenitors (LKS−) mobilized: + G-CSF vs vehicle + G-CSF; for total number of myeloid progenitors (LKS−) mobilized: Example 7: D 60 mg/kg; for total number of HSPCs (LSK48+ and LSK) mobilized blood and spleen / total number of phenotypic HSCs (LSK48−150+) mobilized blood and spleen: Example 8: 60 mg/kg + G-CSF vs vehicle + G-CSF, FIGS. 14A-B
# Experimental: as §2, §1
# The number of phenotypic hematopoietic stem and progenitor cells remaining in the bone marrow following treatment was measured by flow cytometry using antibodies specific for lineage markers (CD3, CD5, CD45R/B220, F4/80, Gr1, CD41, Ter119), Sca-1, Kit, CD48 and CD150. Similarly, the number of phenotypic hematopoietic stem cells mobilized into the blood and spleen were measured. Colony assays were also performed on blood and spleen to determine the number of colony forming cells per mL of blood and per spleen. All results are presented as mean f standard deviation with n=6 per groups. Levels of significance for differences were calculated using the Student's t-test.
# All procedures were approved by the animal experimentation ethics committee of the University of Queensland. All experiments were performed on nine to twelve-week old C57BL/6 male mice or genetically modified mice back-crossed at least 10 times into C57BL/6. Recombinant human G-CSF (Amgen, Thousand Oaks, Calif.) was injected twice daily subcutaneously at 125 μg/kg per injection for up to 4 consecutive days. Plerixafor (AMD3100 octohydrochloride, Tocris Bioscience, Bristol, UK) was injected intraperitoneally as a single 16 mg/kg dose corresponding to 10 mg/kg of AMD3100 base. Tissues were harvested 1 h after Plerixafor administration. […] Compounds H and J were administered at 60 mg/kg and Compound K was administered at 100 mg/kg. Control mice were injected with an equivalent volume of saline. At specified time-points, mice were anesthetized with isoflurane before cardiac puncture to harvest blood. Mice were then euthanized by cervical dislocation and BM and bones harvested.
# Following flushing with PBS plus 2% NCS, enriched central BM cells were pelleted at 370×g for 5 minutes at 4° C. and resuspended in CD16/CD32 hybridoma 2.4G2 supernatant to block IgGFc receptors. HSCs were stained with the biotinylated lineage antibody cocktail (CD3, CD5, B220, CD11b, Gr-1, Ter119) and biotinylated CD41 together with streptavidin (SAV)-Pacific Blue, anti-Sca-1-PECY7, anti-KIT-APC, CD48-FITC and CD150-PE as previously described (17). Data were acquired on a CyAn (Dako Cytomation) flow cytometer and analyzed following compensation with single color controls using FlowJo software (Tree Star, Ashland, Oreg.).
# [3] = Spleen weight after mobilization treatment
# Experimental: Additional HIF-α potentiating agents in the form of PHD inhibitors were tested for their ability to enhance mobilization induced by G-CSF. Compound A, Compound B or Compound C, were tested in male, 7 weeks-old C57BL/6 mice. Mice were injected twice daily sub-cutaneously with rhuG-CSF at a dose of 125 μg/kg per injection for four days. […]
# as §1
# [4] = Example 6: 20 mg/kg + G-CSF vs vehicle + G-CSF, FIG. 10
# [5] = Example 6: 20 mg/kg + G-CSF vs vehicle + G-CSF, FIG. 11
# [6] = Example 7: Compound D 60 mg/kg, E and F 20 mg/kg
# [7] = Example 7: D 60 mg/kg, E and F 20 mg/kg, + G-CSF vs vehicle + G-CSF
# [8] = Example 8: H and J 60 mg/kg, K 100 mg/kg
# [9] = Example 7: 20 mg/kg + G-CSF vs vehicle + G-CSF, FIGS. 12A-B
smiles,measurement,setting,value
"N#Cc1nc(C(=O)NCC(=O)O)c(O)c2ccn(Cc3ccccc3F)c12 [Compound C, {[7-Cyano-1-(2-fluoro-benzyl)-4-hydroxy-1H-pyrrolo[2,3-c]pyridine-5-carbonyl]-amino}-acetic acid]",number of colony forming units mobilized to the blood,[1]; [4],significantly increased
same,number of white blood cells per mL of blood,white blood cells; [5],significant increase
same,mobilization of myeloid progenitors (LKS−) to the blood,[2],did not significantly alter
same,increase in mobilization of myeloid progenitors (LKS−) to the spleen,[2],approximately 3 fold
same,increase in number of HSPCs (LSK48+ and LSK) mobilized to the spleen,[2],approximately 2 fold
same,increase in number of phenotypic HSCs (LSK48−150+) mobilized to the spleen,[2],approximately 2 fold
same,total number of phenotypic HSPCs in the bone marrow,[2],did not significantly alter
same,increase in total number of HSPCs (LSK48+ and LSK) mobilized from the bone marrow,[2],approximately 2 fold
same,increase in total number of myeloid progenitors (LKS−) mobilized from the bone marrow,[2],approximately 6 fold
same,increase in total number of phenotypic HSCs (LSK48−150+) mobilized from the bone marrow,[2],approximately 2 fold
same,increase in spleen weight,[3]; [5],approximately 2 fold
"O=C(O)CNC(=O)c1c(O)n(C2CCCCC2)c(=O)n(C2CCCCC2)c1=O [Compound D, [(1,3-Dicyclohexyl-6-hydroxy-2,4-dioxo-1,2,3,4-tetrahydro-pyrimidine-5-carbonyl)-amino]-acetic acid]",number of CFUs mobilized from the bone marrow to the blood and spleen,[1],significantly increased
same,number of white blood cells per mL of blood,"white blood cells; Example 7: D 60 mg/kg, E 20 mg/kg, + G-CSF vs vehicle + G-CSF",significant increase
same,total number of HSCs and progenitors in the BM,[2]; [6],did not significantly alter
same,total number of myeloid progenitors (LKS−) mobilized,"[2]; E and F 20 mg/kg, FIGS. 12A-B",significantly increased
same,increase in spleen weight,[3]; [7],approximately 2 fold
"O=C(O)CNC(=O)c1ncc(-c2cccc(F)c2)cc1O [Compound K, {[5-(3-Fluoro-phenyl)-3-hydroxy-pyridine-2-carbonyl]-amino}-acetic acid]",number of colony forming units mobilized to the spleen,[1]; FIG. 15,no significant change
same,total number (blood and spleen) of mobilized CFUs,[1]; FIG. 15,no significant change
same,total number of HSCs and progenitors in the BM,[2]; [8],did not significantly alter
"N#Cc1nc(C(=O)NCC(=O)O)c(O)c2c(Oc3ccc(Cl)cc3)cccc12 [Compound A, {[5-(4-Chloro-phenoxy)-1-cyano-4-hydroxy-isoquinoline-3-carbonyl]-amino}-acetic acid]",number of colony forming units mobilized to the blood,[1]; [4],significantly increased
same,number of white blood cells per mL of blood,white blood cells; [5],significant increase
same,mobilization of myeloid progenitors (LKS−) to the blood,[2],did not significantly alter
same,increase in mobilization of myeloid progenitors (LKS−) to the spleen,[2],approximately 3 fold
same,increase in number of HSPCs (LSK48+ and LSK) mobilized to the spleen,[2],approximately 2 fold
same,increase in number of phenotypic HSCs (LSK48−150+) mobilized to the spleen,[2],approximately 2 fold
same,total number of phenotypic HSPCs in the bone marrow,[2],did not significantly alter
same,increase in total number of HSPCs (LSK48+ and LSK) mobilized from the bone marrow,[2],approximately 2 fold
same,increase in total number of myeloid progenitors (LKS−) mobilized from the bone marrow,[2],approximately 6 fold
same,increase in total number of phenotypic HSCs (LSK48−150+) mobilized from the bone marrow,[2],approximately 2 fold
same,increase in spleen weight,[3]; [5],approximately 2 fold
"O=C(O)CNC(=O)c1ncc2cc(Oc3ccccc3)ccc2c1O [Compound H, [(4-Hydroxy-7-phenoxy-isoquinoline-3-carbonyl)-amino]-acetic acid]",number of colony forming units mobilized to the spleen,[1]; FIG. 15,significant increase
same,total number (blood and spleen) of mobilized CFUs,[1]; FIG. 15,significant increase
same,total number of HSPCs (LSK48+ and LSK) mobilized blood and spleen,[2],significant increase
same,total number of phenotypic HSCs (LSK48−150+) mobilized blood and spleen,[2],significant increase
same,total number of HSCs and progenitors in the BM,[2]; [8],did not significantly alter
"COc1ccc(Oc2ccc3c(O)c(C(=O)NCC(=O)O)ncc3c2)cc1 [Compound J, {[4-Hydroxy-7-(4-methoxy-phenoxy)-isoquinoline-3-carbonyl]-amino}-acetic acid]",number of colony forming units mobilized to the blood,"[1]; Example 8: 60 mg/kg + G-CSF vs vehicle control, FIG. 15",significant increase
same,number of colony forming units mobilized to the spleen,[1]; FIG. 15,significant increase
same,total number (blood and spleen) of mobilized CFUs,[1]; FIG. 15,significant increase
same,total number of HSPCs (LSK48+ and LSK) mobilized blood and spleen,[2],significant increase
same,total number of phenotypic HSCs (LSK48−150+) mobilized blood and spleen,[2],significant increase
same,total number of HSCs and progenitors in the BM,[2]; [8],did not significantly alter
"O=c1c(-n2ccnn2)c[nH]n1-c1cc(N2CCOCC2)ncn1 [Compound F, 2-(6-Morpholin-4-yl-pyrimidin-4-yl)-4-[1,2,3]triazol-1-yl-1,2-dihydro-pyrazol-3-one]",number of CFUs mobilized from the bone marrow to the blood and spleen,[1],significantly increased
same,total number of HSCs (LSK48-150+) mobilized from the bone marrow,[2]; [9],significant increase
same,total number of HSPCs (LSK48+ and LSK) mobilized from the bone marrow,[2]; [9],significant increase
same,total number of HSCs and progenitors in the BM,[2]; [6],did not significantly alter
same,total number of myeloid progenitors (LKS−) mobilized,"[2]; E and F 20 mg/kg, FIGS. 12A-B",significant increase
same,increase in spleen weight,[3]; [7],approximately 2 fold
